Earlier results, collected in patent US8642581B1, “Compositions and methods for the production of S-adenosylmethionine within the body” (priority 2000, dated 2014).

Experiments:
[1] = 35° C. (95° F.)
Depressive symptoms = conditions: 195 patients, 400 mg SAMe parenterally for 15 days
[2] = tested on: beta-adrenergic binding sites; conditions: rats, chronic administration
brain membrane = conditions: rats, chronic administration

time SAMe remains stable [1]: 8 to 10 h
Compound: C[S+](CC[C@H](N)C(=O)O)C[C@H]1O[C@@H](n2cnc3c(N)ncnc32)[C@H](O)[C@@H]1O (some centres unmarked) [SAMe, S-adenosylmethionine]
serious adverse events (Depressive symptoms): no serious adverse events were reported
Depressive symptoms (Depressive symptoms; after 7 and 15 days): remitted after both 7 and 15 days
age-related decrease in beta-adrenergic binding sites [2]: prevents
age-related decrease of brain membrane fluidity (brain membrane): prevents
